The values that follow come from PMC7290285 (Viruses, 2020).

Where a name gives a salt, the structure may show the parent alone. Read-outs that look alike come from different tables or passages of the source.

In series [1] the test system is lentiviral particles with AZT-resistant RT mutant (eGFP) in HEK293T-mCat1 cells. As to the kind of experiment: microbe, parasite or virus in culture. Type of series: cell-based, HIV-1.
In series [2] the test system is lentiviral particles with wild-type HIV-1 reverse transcriptase (mCherry) in HEK293T-mCat1 cells. As to the kind of experiment: microbe, parasite or virus in culture. Type of series: cell-based.
The nature of the next series: in vitro. Conditions: human.
For a further series, the system named is HEK293T-mCat1 cells. Conditions: 1 µM.
For series [3], the system named is luciferase lentiviral particles (wild-type RT) in HEK293T-mCat1 cells. Put plainly: Luciferase-based screening using HEK293T-mCat1 cells. Conditions: for Identified as active in the luciferase assay / Relative inhibition [%] of luciferase (wild-type RT): 1 µM; for Identified as active in the luciferase assay: second LOPAC screen; for Relative inhibition [%] of luciferase (wild-type RT): normalized to 1 µM AZT = 100% and DMSO = 0%, HEK293T-mCat1, 3 days.

Series [4] relates to HIV-1-derived lentiviral particles (wild-type RT and AZT-resistant RT mutant) in HEK293T-mCat1 cells. Type of series: cell-based. Conditions: 1 µM.
Series [5] deals with eGFP-encoding lentiviral vectors (mutant reverse transcriptase). Put plainly: Flow-cytometry based inhibitor analysis, eGFP vector. In kind it is cell-based, HIV-1. Conditions: Figure S2, read-out: IC50 of the AZT-resistant mutant, FC-based analysis.
For series [6], the target named is mCherry-encoding lentiviral vectors (wild-type reverse transcriptase). Put plainly: Flow-cytometry based inhibitor analysis, mCherry vector. Conditions: Figure S2, read-out: IC50 of the wild-type virus, FC-based analysis. Type of series: cell-based, HIV-1.
For the next series, the system named is HIV. Set-up: method as in earlier work. Conditions: read-out: reported IC50; cited from earlier work.
Series [7] has as its system ecotropic pseudo-typed lentiviral particles (luciferase) in PM1-mCat1 cells. As to the kind of experiment: Luciferase-based viral integration assay using PM1-mCat1 cells. Conditions: Human immunodeficiency virus 1, read-out: IC50 (in µM), viral integration assay.
For the next series, the system named is PM1-mCat1 cells. Put plainly: Cytotoxicity determination (CellTiter-Glo) in PM1-mCat1 cell line. In kind it is cell-based, human. Conditions: PM1-mCat1 viability relative to DMSO. For orientation: In ATP-based viability assays light output follows the ATP content of the culture.
[8] abbreviates: Human immunodeficiency virus 1, 48 h; read-out: Relative inhibition [%] of eGFP (mutant RT).
Where [9] appears, read: Human immunodeficiency virus 1, 48 h; read-out: Relative inhibition [%] of mCherry (wild-type RT).

On to `Nc1ccn([C@H]2CC[C@@H](CO)O2)c(=O)n1` [2',3'-Dideoxycytidine], for which the inhibition at 1 µM in [1] (setting [8]) worked out at 99%; in series [2] (setting [9]), 100%. For the same compound, the viability at 1 µM in the series “in vitro” was 7%.

Take `Nc1nccc2c1ncn2[C@@H]1O[C@H](CO)[C@@H](O)[C@H]1O` [3-Deazaadenosine]: the “Relative inhibition [%] of eGFP (mutant RT)” value in series [1] (1 µM) is -34%. In addition, in series [2] (1 µM), the “Relative inhibition [%] of mCherry (wild-type RT)” value (“Relative inhibition [%] of mCherry” for short) is recorded as -25%. In the series with HEK293T-mCat1 cells, the “Viability [%]” value amounted to 85%.

For the compound `Cc1cn([C@H]2C[C@H](N=[N+]=[N-])[C@@H](CO)O2)c(=O)[nH]c1=O` [3‘-Azido-3‘-deoxythymidine], the “Relative inhibition [%] of eGFP (mutant RT)” value in series [1] (1 µM) was determined as 38%. The “Relative inhibition [%] of mCherry” value in series [2] (1 µM) was 73%. In the series with HEK293T-mCat1 cells, the “Viability [%]” value was 89%. In addition, in series [3], the “Identified as active in the luciferase assay” value (“Identified as active” for short) is on record as “again identified” and the “Relative inhibition [%] of luciferase (wild-type RT)” value was determined as 85%. Moreover, the “Reduction of the luciferase signal” value in series [3] (AZT control at 1 µM, HEK293T-mCat1) worked out at 50%.

Turning to `Nc1nc2c(ncn2COCCO)c(=O)[nH]1` [Acyclovir], the figures for the inhibition at 1 µM in [1] (setting [8]) and in series [2] (setting [9]) were -33% and 41%, respectively. In the series “in vitro”, the viability at 1 µM was found to be 88%.

On to `NC12CC3CC(CC(C3)C1)C2` [Amantadine hydrochloride], for which the inhibition at 1 µM in series [1] (setting [8]) was -29%; in [2] (setting [9]), 6%. The viability at 1 µM in the series “in vitro” is 67%.

`Cl.Nc1ccn([C@@H]2O[C@H](CO)[C@@H](O)[C@@H]2O)c(=O)n1` [Cytosine-1-beta-D-arabino-furanoside hydrochloride]: in series [1] (1 µM), the “Relative inhibition [%] of eGFP (mutant RT)” value is listed as 95%. In [2] (1 µM), the “Relative inhibition [%] of mCherry” value was 98%. In addition, in the series on HEK293T-mCat1 cells, the “Viability [%]” value is 38%. Moreover, in [3], the “Identified as active” value was “again identified” and the “Relative inhibition [%] of luciferase (wild-type RT)” value is listed as 211%.

For the compound `CC(=O)OCC(CCn1cnc2cnc(N)nc21)COC(C)=O` [Famciclovir], the inhibition at 1 µM in series [1] (setting [8]) and in [2] (setting [9]) was 100% each time. In “in vitro”, this compound registered a viability at 1 µM of 7%.

As for `Oc1ccc(C2CNCCc3c2cc(O)c(O)c3Cl)cc1` (stereo not shown) [Fenoldopam bromide], the inhibition at 1 µM is 65% in [1] (Human immunodeficiency virus 1, 48 h, read-out: Relative inhibition [%] of eGFP (mutant RT)); 61% in series [2] (Human immunodeficiency virus 1, 48 h, read-out: Relative inhibition [%] of mCherry (wild-type RT)); -40% in [3] (Human immunodeficiency virus 1, 72 h, read-out: Relative inhibition [%] of luciferase (wild-type RT)). In the series “in vitro”, the viability at 1 µM amounted to 73%.

Turning to `Cc1c(O)cccc1C(=O)N[C@@H](CSc1ccccc1)[C@H](O)CN1C[C@H]2CCCC[C@H]2C[C@H]1C(=O)NC(C)(C)C` [Nelfinavir mesylate hydrate], the inhibition at 1 µM in series [1] (setting [8]) was found to be 49%; in series [2] (setting [9]), 90%. Moreover, the viability at 1 µM in the series “in vitro” was found to be 26%.

For `Nc1nc2c(ncn2CCOCP(=O)(O)O)c(=O)[nH]1` [PMEG hydrate], in series [1], the “Residual transduction rate, eGFP encoding lentiviral particles, microscopy” value came to 5%. Besides, the “Relative inhibition [%] of eGFP (mutant RT)” value in [1] (1 µM) came to 70%. Besides, in series [2], the “Residual transduction rate, mCherry encoding lentiviral particles, microscopy” value is 30%. In addition, in series [2] (1 µM), the “Relative inhibition [%] of mCherry” value came to 94%. Besides, in series [4], the “residual activity in the high-content screening” value is listed as 5%. Also, the values for the IC50 (in [5]; in series [6]; in the series on HIV) were 1200 nM, 560 nM and 200 nM, respectively. Further, in the series with HEK293T-mCat1 cells, the “Viability [%]” value was 54%. Also, the “Identified as active” value in series [3] is on record as “again identified”. The “Relative inhibition [%] of luciferase (wild-type RT)” value in [3] came to 156%.

`NC(=O)c1ncn([C@@H]2O[C@H](CO)[C@@H](O)[C@H]2O)n1` [Ribavirin]: the results for the inhibition at 1 µM in series [1] (setting [8]) and in series [2] (setting [9]) were -73% and -21%, respectively. In “in vitro”, this compound had a viability at 1 µM of 81%.

`CCn1c(SCC(=O)Nc2ccccc2C#N)nc2ccsc2c1=O` [T6068357, CCN1C(=O)C2=C(C=CS2)N=C1SCC(=O)NC1=C(C=CC=C1)C#N]: the IC50 in series [7] is 1.49 µM.

Turning to `O=C(Nc1ccccc1N1CCCCC1)c1cc(S(=O)(=O)N2CCOCC2)ccc1Cl` [T6098586, ClC1=C(C=C(C=C1)S(=O)(=O)N1CCOCC1)C(=O)NC1=C(C=CC=C1)N1CCCCC1], the “Concentration beyond which the compound is toxic (viability drops below 80%)” value in the series with PM1-mCat1 cells is more than 2000 nM. Moreover, the IC50 in series [7] stood at 1.78 µM.

As to `O=C(Nc1ccccc1N1CCCC1)c1cc(S(=O)(=O)N2CCOCC2)ccc1Cl` [T6137813, ClC1=C(C=C(C=C1)S(=O)(=O)N1CCOCC1)C(=O)NC1=C(C=CC=C1)N1CCCC1], the IC50 in [7] was found to be 5.04 µM.

In the case of `C=CCOC(=O)C1=C(C)NC(=S)NC1c1ccc(C(C)C)cc1` (stereo not shown) [T6203208, CC(C)C1=CC=C(C=C1)C1NC(=S)NC(C)=C1C(=O)OCC=C], the IC50 in series [7] came to 4.37 µM.

As to `COc1ccc(NS(=O)(=O)c2cccc(C(=O)NCC(c3ccc(OC)cc3)N3CCCCC3)c2)cc1` (stereo not shown) [T6213020, COC1=CC=C(NS(=O)(=O)C2=CC(=CC=C2)C(=O)NCC(N2CCCCC2)C2=CC=C(OC)C=C2)C=C1], in series [7], the IC50 turned out to be 2.79 µM.

For `CN(C1CCCCCC1)S(=O)(=O)c1cccc(C#N)c1` [T6302141, CN(C1CCCCCC1)S(=O)(=O)C1=CC(=CC=C1)C#N], the IC50 in series [7] is 2.24 µM.

Consider `Cc1cc(Cl)c(C)c(S(=O)(=O)NCCCN2CCCC2=O)c1Cl` [T6312190, CC1=C(Cl)C(=C(C)C(Cl)=C1)S(=O)(=O)NCCCN1CCCC1=O], for which the IC50 in [7] was 2.02 µM.

Take `c1ccc(CCNc2nc(CN3CCOCC3)nc3scc(-c4cccs4)c23)nc1` [T6312425, C(CC1=NC=CC=C1)NC1=C2C(SC=C2C2=CC=CS2)=NC(CN2CCOCC2)=N1]: the IC50 in series [7] is more than 10 µM.

For `COc1ccccc1N1CCN(C(=O)c2cc(Cl)ccc2O)CC1` [T6328287, COC1=C(C=CC=C1)N1CCN(CC1)C(=O)C1=C(O)C=CC(Cl)=C1], the IC50 in series [7] amounted to 3.89 µM.

On to `Cc1oc(-c2ccccc2)nc1CN1CC(C(=O)N2CCCCC2)Oc2ccccc21` (stereo not shown) [T6329376, CC1=C(CN2CC(OC3=C2C=CC=C3)C(=O)N2CCCCC2)N=C(O1)C1=CC=CC=C1], for which, in [7], the IC50 was determined as 4.83 µM.

As to `Cc1cnc2c(S(=O)(=O)N3CCN(Cc4ccc5c(c4)OCCO5)CC3)cccc2c1` [T6332191, CC1=CC2=C(N=C1)C(=CC=C2)S(=O)(=O)N1CCN(CC2=CC3=C(OCCO3)C=C2)CC1], the IC50 in series [7] was found to be 1.42 µM.

Turning to `O=C(Cc1csc(-c2ccccn2)n1)N=c1sccn1Cc1ccccc1` [T6357587, O=C(CC1=CSC(=N1)C1=NC=CC=C1)N=C1SC=CN1CC1=CC=CC=C1], the IC50 in [7] was 8.3 µM.

Regarding `O=S(=O)(c1ccc(CSc2ncnc3scc(-c4ccc(F)cc4)c23)o1)N1CCCC1` [T6366633, FC1=CC=C(C=C1)C1=CSC2=C1C(SCC1=CC=C(O1)S(=O)(=O)N1CCCC1)=NC=N2], the IC50 in [7] came out at 1.67 µM.

With `O=C(Nc1ccccc1N1CCCC1)c1cc(S(=O)(=O)N2CCOCC2)ccc1F` [T6382120, FC1=C(C=C(C=C1)S(=O)(=O)N1CCOCC1)C(=O)NC1=C(C=CC=C1)N1CCCC1], the IC50 in [7] came to 2.86 µM.

For `O=C(Nc1ccccc1-n1cccn1)c1ccccc1Br` [T6468172, BrC1=C(C=CC=C1)C(=O)NC1=C(C=CC=C1)N1C=CC=N1], in [7], the IC50 came out at 1.04 µM.

Regarding `C=CCNC(=O)CN1CCN(c2nc3ccccc3s2)CC1` [T6471356, C=CCNC(=O)CN1CCN(CC1)C1=NC2=C(S1)C=CC=C2], the IC50 in series [7] amounted to 2.37 µM.

With `COc1ccc(C2CCCN2C(=O)C2CC(=O)N(c3ccccc3F)C2)c(OC)c1` (stereo not shown) [T6496714, COC1=CC(OC)=C(C=C1)C1CCCN1C(=O)C1CN(C(=O)C1)C1=C(F)C=CC=C1], the IC50 in [7] worked out at 2.44 µM.

In the case of `COc1ccc(OC)c(C2CCCN2C(=O)C2CC(=O)N(c3ccccc3)C2)c1` (stereo not shown) [T6517641, COC1=CC(C2CCCN2C(=O)C2CN(C(=O)C2)C2=CC=CC=C2)=C(OC)C=C1], in series [7], the IC50 was 6.83 µM.

On to `c1coc(-c2noc(CNc3ccccc3-n3cccn3)n2)c1` [T6671011, C(NC1=C(C=CC=C1)N1C=CC=N1)C1=NC(=NO1)C1=CC=CO1], for which the IC50 in series [7] came to 4 µM.

What is called inhibition is the relative decrease from the control value, in per cent. What is called viability is the share of living cells, or the viability signal relative to a control.
